Laboratory results: patent publication US11548871B2, “Triazole carbamate pyridyl sulfonamides as LPA receptor antagonists and uses thereof” (Gilead Sciences, Inc., priority 2019, dated 2023)

Biological target: human LPAR1 (Homo sapiens, UniProt Q92633)
Assay: LPAR1 intracellular calcium mobilization assay (antagonist mode)

Sequence of human LPAR1 (Q92633 whole entry): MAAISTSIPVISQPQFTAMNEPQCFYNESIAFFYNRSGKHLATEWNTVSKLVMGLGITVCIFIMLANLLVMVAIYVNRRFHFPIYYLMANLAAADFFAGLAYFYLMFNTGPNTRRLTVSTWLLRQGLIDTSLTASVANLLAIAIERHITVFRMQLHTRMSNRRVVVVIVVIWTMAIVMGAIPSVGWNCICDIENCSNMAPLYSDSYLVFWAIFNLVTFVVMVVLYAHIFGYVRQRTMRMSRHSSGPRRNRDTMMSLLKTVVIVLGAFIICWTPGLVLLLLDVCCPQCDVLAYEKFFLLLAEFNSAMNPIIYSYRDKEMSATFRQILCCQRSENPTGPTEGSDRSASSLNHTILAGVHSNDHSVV

Compound | EC50 [nM]
Cc1nc(-c2nnn(C)c2NC(=O)O[C@H](C)c2cncnc2C)ccc1NS(C)(=O)=O [Compound 70, (R)-1-(4-methylpyrimidin-5-yl)ethyl (1-methyl-4-(6-methyl-5-(methylsulfonamido)pyridin-2-yl)-1H-1,2,3-triazol-5-yl)carbamate] | 1590
CCCCC[C@@H](C)OC(=O)Nc1c(-c2ccc(NS(C)(=O)=O)c(C)n2)nnn1C [Compound 71, (R)-heptan-2-yl (1-methyl-4-(6-methyl-5-(methylsulfonamido)pyridin-2-yl)-1H-1,2,3-triazol-5-yl)carbamate] | 1740
Cc1nc(-c2nnn(C)c2NC(=O)O[C@H](C)CC(C)C)ccc1NS(C)(=O)=O [Compound 72, (R)-4-methylpentan-2-yl (1-methyl-4-(6-methyl-5-(methylsulfonamido)pyridin-2-yl)-1H-1,2,3-triazol-5-yl)carbamate] | 115
Cc1nc(-c2nnn(C)c2NC(=O)OC2c3ccccc3CC2F)ccc1NS(C)(=O)=O (centres unmarked) [Compound 73, 2-fluoro-2,3-dihydro-1H-inden-1-yl (1-methyl-4-(6-methyl-5-(methylsulfonamido)pyridin-2-yl)-1H-1,2,3-triazol-5-yl)carbamate] | 3220
Cc1nc(-c2nnn(C)c2NC(=O)O[C@H](C)c2cc(F)cnc2Cl)ccc1NS(C)(=O)=O [Compound 74, (R)-1-(2-chloro-5-fluoropyridin-3-yl)ethyl (1-methyl-4-(6-methyl-5-(methylsulfonamido)pyridin-2-yl)-1H-1,2,3-triazol-5-yl)carbamate] | 110
Cc1nc(-c2nnn(C)c2NC(=O)OC(C)c2ccncc2Cl)ccc1NS(C)(=O)=O (centres unmarked) [Compound 75, 1-(3-chloropyridin-4-yl)ethyl (1-methyl-4-(6-methyl-5-(methylsulfonamido)pyridin-2-yl)-1H-1,2,3-triazol-5-yl)carbamate] | 155
Cc1nc(-c2nnn(C)c2NC(=O)OC(C)c2nccnc2Cl)ccc1NS(C)(=O)=O (centres unmarked) [Compound 76, 1-(3-chloropyrazin-2-yl)ethyl (1-methyl-4-(6-methyl-5-(methylsulfonamido)pyridin-2-yl)-1H-1,2,3-triazol-5-yl)carbamate] | 929
Cc1nc(-c2nnn(C)c2NC(=O)OC(C)c2ccnc(F)c2Cl)ccc1NS(C)(=O)=O (centres unmarked) [Compound 77, 1-(3-chloro-2-fluoropyridin-4-yl)ethyl (1-methyl-4-(6-methyl-5-(methylsulfonamido)pyridin-2-yl)-1H-1,2,3-triazol-5-yl)carbamate] | 79.2
Cc1nc(-c2nnn(C)c2NC(=O)OC(C)c2cncc(F)c2Cl)ccc1NS(C)(=O)=O (centres unmarked) [Compound 78, 1-(4-chloro-5-fluoropyridin-3-yl)ethyl (1-methyl-4-(6-methyl-5-(methylsulfonamido)pyridin-2-yl)-1H-1,2,3-triazol-5-yl)carbamate] | 378
Cc1nc(-c2nnn(C)c2NC(=O)OC(C)c2cccnc2F)ccc1NS(C)(=O)=O (centres unmarked) [Compound 79, 1-(2-fluoropyridin-3-yl)ethyl (1-methyl-4-(6-methyl-5-(methylsulfonamido)pyridin-2-yl)-1H-1,2,3-triazol-5-yl)carbamate] | 589
Cc1nc(-c2nnn(C)c2NC(=O)OC(C)c2cccnc2C)ccc1NS(C)(=O)=O (centres unmarked) [Compound 81, 1-(2-methylpyridin-3-yl)ethyl (1-methyl-4-(6-methyl-5-(methylsulfonamido)pyridin-2-yl)-1H-1,2,3-triazol-5-yl)carbamate] | 876
Cc1ccncc1C(C)OC(=O)Nc1c(-c2ccc(NS(C)(=O)=O)c(C)n2)nnn1C (centres unmarked) [Compound 82, 1-(4-methylpyridin-3-yl)ethyl (1-methyl-4-(6-methyl-5-(methylsulfonamido)pyridin-2-yl)-1H-1,2,3-triazol-5-yl)carbamate] | 2300
Cc1nc(-c2nnn(C)c2NC(=O)OC(C)c2cncc(Cl)c2)ccc1NS(C)(=O)=O (centres unmarked) [Compound 83, 1-(5-chloropyridin-3-yl)ethyl (1-methyl-4-(6-methyl-5-(methylsulfonamido)pyridin-2-yl)-1H-1,2,3-triazol-5-yl)carbamate] | 623
Cc1nc(-c2nnn(C)c2NC(=O)OC(C)c2cc(Cl)cnc2Cl)ccc1NS(C)(=O)=O (centres unmarked) [Compound 84, 1-(2,5-dichloropyridin-3-yl)ethyl (1-methyl-4-(6-methyl-5-(methylsulfonamido)pyridin-2-yl)-1H-1,2,3-triazol-5-yl)carbamate] | 193
Cc1nc(-c2nnn(C)c2NC(=O)OC(C)c2cccnc2C(F)(F)F)ccc1NS(C)(=O)=O (centres unmarked) [Compound 85, 1-(2-(trifluoromethyl)pyridin-3-yl)ethyl (1-methyl-4-(6-methyl-5-(methylsulfonamido)pyridin-2-yl)-1H-1,2,3-triazol-5-yl)carbamate] | 2470
Cc1nc(-c2nnn(C)c2NC(=O)O[C@H](C)c2ccccc2Cl)ccc1N(C)S(C)(=O)=O [Compound 86, (R)-1-(2-chlorophenyl)ethyl(1-methyl-4-(6-methyl-5-(N-methylmethylsulfonamido)pyridin-2-yl)-1H-1,2,3-triazol-5-yl)carbamate] | 55.4

Compound | EC50 [nM]
Cc1nc(-c2nnn(C)c2NC(=O)O[C@H](C)c2cccc(F)c2F)ccc1NS(C)(=O)=O [Compound 87, (R)-1-(2,3-difluorophenyl)ethyl(1-methyl-4-(6-methyl-5-(methylsulfonamido)pyridin-2-yl)-1H-1,2,3-triazol-5-yl)carbamate] | 312
C[C@@H](OC(=O)Nc1c(-c2ncc(NS(C)(=O)=O)cc2F)nnn1C)c1cccc(F)c1 [Compound 88, (R)-1-(3-fluorophenyl)ethyl(4-(3-fluoro-5-(methylsulfonamido)pyridin-2-yl)-1-methyl-1H-1,2,3-triazol-5-yl)carbamate] | 256
C[C@@H](OC(=O)Nc1c(-c2ncc(NS(C)(=O)=O)cc2F)nnn1C)c1ccccc1Cl [Compound 89, (R)-1-(2-chlorophenyl)ethyl(4-(3-fluoro-5-(methylsulfonamido)pyridin-2-yl)-1-methyl-1H-1,2,3-triazol-5-yl)carbamate] | 31.4
Cc1nc(-c2nnn(C)c2NC(=O)O[C@H](C)c2cc(F)c(F)cc2F)ccc1NS(C)(=O)=O [Compound 90, (R)-1-(2,4,5-trifluorophenyl)ethyl(1-methyl-4-(6-methyl-5-(methylsulfonamido)pyridin-2-yl)-1H-1,2,3-triazol-5-yl)carbamate] | 282
Cc1nc(-c2nnn(C)c2NC(=O)OCc2cccc(F)c2)ccc1NS(C)(=O)=O [Compound 91, 3-fluorobenzyl(1-methyl-4-(6-methyl-5-(methylsulfonamido)pyridin-2-yl)-1H-1,2,3-triazol-5-yl)carbamate] | 72.6
Cc1nc(-c2nnn(C)c2NC(=O)O[C@H](C)c2ccccc2F)ccc1NS(C)(=O)=O [Compound 93, (R)-1-(2-fluorophenyl)ethyl(1-methyl-4-(6-methyl-5-(methylsulfonamido)pyridin-2-yl)-1H-1,2,3-triazol-5-yl)carbamate] | 41.3
Cc1nc(-c2nnn(C)c2NC(=O)O[C@@H](c2ccccc2)C(F)(F)F)ccc1NS(C)(=O)=O [Compound 94, (S)-2,2,2-trifluoro-1-phenylethyl(1-methyl-4-(6-methyl-5-(methylsulfonamido)pyridin-2-yl)-1H-1,2,3-triazol-5-yl)carbamate] | 38.6
C[C@@H](OC(=O)Nc1c(-c2ccc(NS(C)(=O)=O)cn2)nnn1C)c1cccc(F)c1 [Compound 95, (R)-1-(3-fluorophenyl)ethyl(1-methyl-4-(5-(methylsulfonamido)pyridin-2-yl)-1H-1,2,3-triazol-5-yl)carbamate] | 28.4
Cc1nc(-c2nnn(CC#N)c2NC(=O)O[C@H](C)c2ccccc2Cl)ccc1NS(C)(=O)=O [Compound 96, (R)-1-(2-chlorophenyl)ethyl(1-(cyanomethyl)-4-(6-methyl-5-(methylsulfonamido)pyridin-2-yl)-1H-1,2,3-triazol-5-yl)carbamate] | 18.1
Cc1nc(-c2nnn(C)c2NC(=O)O[C@@H](c2ccccc2F)C(F)(F)F)ccc1NS(C)(=O)=O [Compound 97, (S)-2,2,2-trifluoro-1-(2-fluorophenyl)ethyl(1-methyl-4-(6-methyl-5-(methylsulfonamido)pyridin-2-yl)-1H-1,2,3-triazol-5-yl)carbamate] | 387
Cc1nc(-c2nnn(C)c2NC(=O)O[C@H](C)c2ccccc2C(F)(F)F)ccc1NS(C)(=O)=O [Compound 98, (R)-1-(2-(trifluoromethyl)phenyl)ethyl (1-methyl-4-(6-methyl-5-(methylsulfonamido)pyridin-2-yl)-1H-1,2,3-triazol-5-yl)carbamate] | 69.9
Cc1nc(-c2nnn(CC#N)c2NC(=O)O[C@H](C)c2ccccc2)ccc1NS(C)(=O)=O [Compound 99, (R)-1-phenylethyl(1-(cyanomethyl)-4-(6-methyl-5-(methylsulfonamido)pyridin-2-yl)-1H-1,2,3-triazol-5-yl)carbamate] | 44.6
Cc1nc(-c2nnn(CC#N)c2NC(=O)O[C@@H](c2ccccc2)C(F)F)ccc1NS(C)(=O)=O [Compound 100, (S)-2,2-difluoro-1-phenylethyl(1-(cyanomethyl)-4-(6-methyl-5-(methylsulfonamido)pyridin-2-yl)-1H-1,2,3-triazol-5-yl)carbamate] | 114
CCS(=O)(=O)Nc1ccc(-c2nnn(C)c2NC(=O)O[C@H](C)c2cccc(F)c2)nc1C [Compound 101, (R)-1-(3-fluorophenyl) ethyl(4-(5-(ethyl-sulfonamido)-6-methyl-pyridin-2-yl)-1-methyl-1H-1,2,3-triazol-5-yl)carbamate] | 261
Cc1nc(-c2nnn(C)c2NC(=O)O[C@H](C)c2ccccc2Cl)ccc1NS(=O)(=O)CC#N [Compound 102, (R)-1-(2-chloro-phenyl)ethyl (4-(5-((cyano-methyl)sulfonamido)-6-methyl-pyridin-2-yl)-1-methyl-1H-1,2,3-triazol-5-yl)carbamate] | 88.4
Cc1nc(-c2nnn(C)c2NC(=O)O[C@H](C)c2ccccc2Cl)ccc1NS(=O)(=O)C1CC1 [Compound 103, (R)-1-(2-chloro-phenyl)ethyl(4-(5-(cyclopropane-sulfonamido)-6-methylpyridin-2-yl)-1-methyl-1H-1,2,3-triazol-5-yl)carbamate] | 56.3
